pKd, pKi: −log10 of the molar value. Like-named read-outs stand apart in the source and are kept apart here.

The source of these data is paper PMC6379071 (Biochemistry, 2016).

In data set [1] the target is T1, SULT1A1 (Homo sapiens, UniProt P50225). In kind it is binding.
The target in data set [2] is T1, SULT1A1. Description: 35S-PAPS test whether EGCG is a substrate. The data set is classed as biochemical.
In data set [3] the target is T1, SULT1A1. Description: Presteady state. The data set is classed as binding.
In data set [4] the target is T2, SULT2A1 (Homo sapiens, UniProt Q06520).
T2 sequence (Q06520 1-285): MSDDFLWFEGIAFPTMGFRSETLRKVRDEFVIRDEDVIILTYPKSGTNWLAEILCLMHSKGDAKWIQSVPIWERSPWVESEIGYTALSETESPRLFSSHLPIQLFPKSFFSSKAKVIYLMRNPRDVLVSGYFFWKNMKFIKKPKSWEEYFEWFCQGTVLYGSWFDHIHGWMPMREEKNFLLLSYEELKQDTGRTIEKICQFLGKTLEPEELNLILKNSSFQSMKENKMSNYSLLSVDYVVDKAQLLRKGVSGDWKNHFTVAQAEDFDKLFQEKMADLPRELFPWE
Description: 35S-PAPS test whether EGCG is a substrate. The data set is classed as biochemical.

The target in data set [5] is T1, SULT1A1. The following applies: SULT1A1 isoform; cited from earlier work.
For data set [6] the following is noted: cited from earlier work.
Data set [7] deals with T1, SULT1A1. The following applies: cited from earlier work; for second molecule binds more weakly than the first: unliganded SULT1A1 dimer.
In data set [8] the target is T1, SULT1A1. Particulars: PAP, cited from earlier work.
The target in data set [9] is T1, SULT1A1. The following applies: PAPS 100 μM, NaPO4 50 mM, pH 7.2, 25 °C.
Where [10] appears, read: read-out: Kd of acceptor, enzyme form E·(EGCG)2.
The mark [11] stands for this setting: EGCG binding to E·(PAP)2, two-step model.
[12] abbreviates: EGCG, enzyme species E·PAP·EGCG.

T1 sequence (P50225 whole entry): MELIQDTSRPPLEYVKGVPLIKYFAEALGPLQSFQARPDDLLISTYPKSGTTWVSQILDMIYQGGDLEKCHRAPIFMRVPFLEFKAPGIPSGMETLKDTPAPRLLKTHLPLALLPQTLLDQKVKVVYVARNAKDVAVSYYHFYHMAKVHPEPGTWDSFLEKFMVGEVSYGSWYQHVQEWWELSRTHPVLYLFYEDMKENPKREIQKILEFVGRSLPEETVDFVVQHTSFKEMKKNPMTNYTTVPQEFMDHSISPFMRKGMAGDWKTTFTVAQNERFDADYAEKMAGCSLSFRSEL

For `C[C@]12CC[C@@H]3c4ccc(O)cc4CC[C@H]3[C@@H]1CC[C@@H]2O` [E2, 17-β-estradiol], the pKd in data set [1] is 6.00; in data set [1] (setting [10]) it was 6.00; in data set [1] (read-out: Kd of acceptor, enzyme form E·(PAP)2), 6.00; in data set [1] (read-out: Kd of acceptor, enzyme form E·(PAP)2·(EGCG)2), 6.00. Further, the “decrease of acceptor affinity when EGCG binds to E·(PAP)2” value in data set [1] is given as “not affected”.
Usually pKi stands for −log10 of the Ki, conventionally taken in molar units. Take `O=C(O[C@@H]1Cc2c(O)cc(O)cc2O[C@@H]1c1cc(O)c(O)c(O)c1)c1cc(O)c(O)c(O)c1` [EGCG, epigallocatechin gallate]: the “sulfonation of EGCG” value in [2] (SULT1A1 30 μM, EGCG 250 μM, 35S-PAPS 0.30 μM, over 30 min) is “not detected”. Further, in data set [2] (from lower detection limit ~5 % of PAPS conversion over 30 min), the “turnover of EGCG” value is on record as “less than 0.16 % min^−1”. For the same compound, the “Kiso for the cap of the high-affinity subunit in the E·(EGCG)2 complex” value in [3] (21 × 18) is recorded as 378. In [3] (setting [11]), the “kfor, binding step” value is listed as 9.9 (0.6) × 10^6M^−1s^−1. Moreover, the “kfor, isomerization step (cap closure)” value in data set [3] (setting [11]) was determined as 172 s⁻¹. Besides, the “krev, binding step” value in data set [3] (setting [11]) is 6.5 s⁻¹. For the same compound, in data set [3] (setting [11]), the “krev, isomerization step” value was 10 s⁻¹. Also, the koff in data set [3] (EGCG, enzyme species E) was 6.9 (0.2) s^−1; in [3] (EGCG, enzyme species E·PAP), 0.62 (0.03) s^−1; in data set [3] (setting [12]) it was 13.9 (0.2) s^−1. Further, the kon is recorded as 9.8 (0.3)^a μM^−1s^−1 in data set [3] (EGCG, enzyme species E); 13.5 (0.7) μM^−1s^−1 in [3] (EGCG, enzyme species E·PAP); 17.1 (0.3) μM^−1s^−1 in data set [3] (setting [12]). Also, in data set [3] (EGCG-bound E·(PAP)2), the “Kiso, isomerization equilibrium constant” value is 17. In addition, the pKd in [3] (read-out: Kd (koff/Kon), EGCG, enzyme species E) is 6.15; in data set [3] (read-out: Kd (koff/Kon), EGCG, enzyme species E·PAP), 7.34; in data set [3] (read-out: Kd (koff/Kon), EGCG, enzyme species E·PAP·EGCG), 6.09; in [1] (read-out: Kd EGCG, enzyme form E (ligand-free), allosteric site), 6.17; in data set [1] (read-out: Kd EGCG, enzyme form E·(PAP)2), 7.41; in data set [1] (read-out: Kd EGCG, enzyme form E·EGCGPAP), 6.09. Also, in [1] (read-out: Kd EGCG, enzyme form E·PAP), the pKd is 7.36. Besides, the “affinity of EGCG for E·PAP relative to its affinity for E” value in [1] is 15 fold. In addition, the EGCG binding stoichiometry in data set [1] (E·(PAP)2) was 1.0 EGCG/subunit; in [1] (E·PAP, PAP-containing subunit (high-affinity site)), 1.0 per dimer. In addition, the “EGCG binds more tightly to cap-closed (nucleotide-bound) form” value in [1] (cap closed vs open) came out at 17 fold. Further, the EGCG-binding stoichiometry in data set [1] (ligand-free enzyme, [SULT1A1] = 15 Kd) amounted to 1.0 per subunit. In [4] (EGCG 30 μM, 35S-PAPS 30 μM, SULT2A1 0.50 μM dimer, in 2 min), the “EGCG converted to product” value stood at 12%. In data set [4] (SULT2A1 30 μM, EGCG 250 μM, 35S-PAPS 0.30 μM, in 1.0 min), the “PAPS converted to sulfonated EGCG” value is on record as “Thirty-four”. In data set [5], the pKi was 7.47. For the same compound, the “concentration of EGCG in human plasma” value in [6] was ~ 0.4 μ.
Take `Nc1ncnc2c1ncn2[C@@H]1O[C@H](COP(=O)(O)O)[C@@H](OP(=O)(O)O)[C@H]1O` [PAP, 3’, 5’-diphosphoadenosine]: the pKd in data set [7] (read-out: Kd PAP, enzyme form E) was 6.46; in [3] (Kd (koff/Kon), PAP, enzyme species E·(EGCG)2), 7.66; in [3] (Kd (koff/Kon), PAP, enzyme species E·(EGCG)2·PAP) it was 6.06; in data set [8] (read-out: Kd (koff/Kon), enzyme species E), 6.43; in data set [1] (Kd PAP, enzyme form E·(EGCG)2 (high-affinity site)), 7.62; in data set [1] (Kd PAP, enzyme form E·(EGCG)2PAP (low-affinity site)) it was 6.11. The pKd in data set [1] (Kd PAP, enzyme form E·EGCGPAP) was 4.51. Besides, in data set [7], the “second molecule binds more weakly than the first” value was 88 fold. In addition, in data set [3], the “koff for PAP departure from the high affinity site of E·(EGCG)2, fold less than that from E” value was found to be 18 fold. Besides, the kon is 1.7e+06 M⁻¹ s⁻¹ in data set [3] (PAP, enzyme species E·(EGCG)2 (high-affinity site)); 880000 M⁻¹ s⁻¹ in data set [3] (PAP, enzyme species E·(EGCG)2·PAP (low-affinity site)); 2.0 (0.1) μM^−1s^−1 in data set [8] (enzyme species E); 0.96 (0.01) μM^−1s^−1 in [8] (enzyme species E·PAP). The koff in data set [3] (PAP, enzyme species E·(EGCG)2 (high-affinity site), saturating EGCG) was 0.038 s⁻¹; in [3] (PAP, enzyme species E·(EGCG)2·PAP) it was 0.77 s⁻¹; in data set [8] (enzyme species E) it was 0.70 (0.05) s^−1; in data set [8] (enzyme species E·PAP), 29 ([1]) s^−1. Moreover, the “decrease in the affinity of the second nucleotide caused by binding of the first” value in data set [1] (E·(EGCG)2 complex) was determined as 33 fold. The “increase of PAP affinity at saturating EGCG” value is recorded as 15 fold in data set [1] (high-affinity site) and 40 fold in [1] (low-affinity site).
On to `Nc1ncnc2c1ncn2[C@@H]1O[C@H](COP(=O)(O)OS(=O)(=O)O)[C@@H](OP(=O)(O)O)[C@H]1O` [PAPS, 3’-phosphoadenosine 5’-phosphosulfate], for which the “second molecule binds more weakly than the first” value in data set [7] was 88 fold.
By Km is commonly meant the concentration of substrate that gives half-maximal velocity. As for `O=[N+]([O-])c1ccc(O)cc1` [PNP, para-nitrophenol], the kcat in data set [9] (PNP as acceptor) is listed as 60 (± 1.8). The pKi in data set [9] (PNP) is 5.18. Further, the Km in [9] (read-out: Km (PNP)) was 1.4 µM.
Take `CC/C(=C(\c1ccc(O)cc1)c1ccc(OCCN(C)C)cc1)c1ccccc1` [TAM, 4-hydroxytamoxifen]: the “decrease of acceptor affinity when EGCG binds to E·(PAP)2” value in data set [1] is given as 23 fold. Moreover, the pKd is 6.15 in [1] (Kd of acceptor, enzyme form E·(PAP)2); 4.80 in data set [1] (Kd of acceptor, enzyme form E·(PAP)2·(EGCG)2); 6.19 in [1] (read-out: Kd of acceptor, enzyme form E); 6.17 in data set [1] (setting [10]).
